US5705693A, “Cationic lipids” (Gilead Sciences, Inc., priority 1995, dated 1998)
Read-outs that look alike come from different tables or passages of the source.

Experiments:
A10 cells = experiment: Transfection of A10 cells with ODN1 (Example 6); type: cell-based, rat; conditions: 18 h, 10% FBS; for cells transfected A10: 15 μg/mL lipid, 1:1 DOPE, 250 pmole ODN1; for toxicity to A10 cells / transfection of A10 in the presence of serum: in words
Text: (§1) Preparation of lipid-nucleic acid complexes and cell transfection.
Cells at about 50-100% confluency were used.

HUVEC cells = experiment: Transfection of HUVEC cells with ODN1 (Example 9); type: cell-based, human; conditions: for % HUVEC transfected: 10% serum, 5 h, 500 pmole ODN1
Text: as §1

NHEK cells = experiment: Transfection of NHEK cells with ODN1 (Example 10); type: cell-based, human; conditions: for % NHEK transfected: DMEM, 24 h
Text: as §1

cells [1] = experiment: Transfection with filtered preparations; type: cell-based; conditions: 1:1 DOPE, sonicated
Experimental: The invention cationic lipids 30 or 34 and DOPE colipid (1:1) were prepared by sonication and then filtered using 200, 100 or 50 nm filters to obtain particles less than about 200 nm in diameter, less than about 100 nm and less than about 50 nm. […] The 50 nm filtered preparations were about 40-50% as efficient as the preparations containing larger particles. The size of the particles or miscelles in a given preparation will vary depending on the preparation method. Sonicating cationic lipid-colipid mixtures will provide smaller miscelles and vortexing will provide larger miscelles (Felgner J. Biol. Chem. (1994) 269:2550-2561). Such miscelles are believed to transfer the polyanion into the cytoplasm of a eukaryotic or prokaryotic cell by pinocytosis, endocytosis and/or by direct fusion with the plasma membrane.

cells [2] = experiment: Amount of fluorescently labeled oligonucleotide delivered versus commercially available lipids; type: cell-based; conditions: observed fluorescence intensity, estimated
Text: The difference in transfection efficiency between lipids described herein and commercially available lipids is usually most pronounced when the transfections are done in the presence of medium containing serum. The amount of polyanion delivered into cells was estimated to be about 2- to 100-fold greater for lipids 30, 34 and 35 based on the observed fluorescence intensity of transfected cells after transfection using a fluorescently labeled oligonucleotide. The cationic lipids described herein also transfect some cell types that are not detectably transfected by commercial lipids, particularly where the transfection is conducted in the presence of serum.

CV-1 cells [3] = system: CV-1 cells
Experimental: (§4) Preparation of lipid-nucleic acid complexes and cell transfection. Lipids were prepared for complexing with nucleic acids by drying a cationic lipid-colipid mixture in CHCl3 under argon. The molar ratio of cationic lipid to colipid was adjusted by adding appropriate amounts of each lipid in CHCl3 together prior to drying. Usually 10 mL of water was added to a 100 mL round bottom flask containing a dried film of lipid and colipid. The lipids consisted of a mixture of an invention cationic lipid and the colipid DOPE (dioleylphosphatidylethanolamine). Sterile-filtered water or a low ionic strength aqueous buffer such as physiological saline, TE (10 mM tris, 1 mM EDTA, pH 7-8) or Ringer's solution was then added to the dried lipids to obtain a lipid suspension at 1 mg lipid/mL followed by a 10 minute bath sonication (Ultra Sonik 100, NEY) at room temperature to suspend the lipids in the flask. The suspended lipids (10 mL) were then sonicated 5 times for 15 seconds per sonication at 0°-4° C. with about 30-60 seconds between pulses. Sonication was usually conducted in a 15 mL polypropylene culture tube. A probe sonicator (Sonifier 250, Branson Ultrasonics) was used at maximum power for the ice bath sonication and for each 15 second pulse. The lipid suspension was optionally filtered or centrifuged (2000 rpm, 10 minutes at 0-4° C.) to remove large particulate matter and the resulting lipid suspensions were kept at 4° C. until used.
(§5) Lipid nucleic acid complexes were prepared by mixing (a) 10% v/v (usually 100 μL) oligonucleotide in Optimem™ (Bethesda Research Labs, Inc.) at room temperature (about 19°-24° C.) with (b) 10% v/v lipid suspension in Optimem™ at room temperature and allowing the mixture to stand for about 15 minutes, followed by adding (c) 80% v/v Optimem™ without serum or 80% v/v tissue culture medium (Modified Essential Medium (MEM), Dulbecco's Modified Eagle's Medium (DMEM), etc. containing 0-80% fetal bovine serum (Hyclone, Inc.). The lipid and nucleic acid solutions could also be prepared using DMEM without serum, a low ionic strength (less than about 200 mM total ion concentration) aqueous medium lacking phosphate (TE, etc) or water in place of Optimem™. Typically, 100 μL each of Optimem™ containing oligonucleotide (100-500 pmole) and Optimem™ containing added lipid was mixed with 800 μL of serum free Optimem™ or with 800 μL of tissue culture medium containing 10-80% FBS. Generally, 5 or 10 μL (5 or 10 μg) of lipid was added to 95 or 90 μL of Optimem™ to give a final 1 mL transfection preparation containing 5 or 10 μg of lipid and 250 pmole of oligonucleotide. The lipid-nucleic acid mixture was held at room temperature for about 15 min hours before adding medium to give the final transfection preparation volume (usually 1 mL) and warming to 37° C. and immediately applying onto the cells. The transfection mixture was left on the cells for 2 to 24 hours (at 37° C.), with a 6 hour time period commonly used.
(§6) Cells were typically transfected using 1 mL of transfection mixture per well in a 6-well plate. Cells at about 50-100% confluency were used. […] Typical transfections with the invention lipids used cells at about 60-100% confluency.

HL60 cells = experiment: Transfection of HL60 cells with 30/ODN1 (Example 8); type: cell-based, human; conditions: for % HL60 transfected: 500 pmole ODN1
Text: as §1
(§2) The toxicity noted for HL60 cells may have been at least partly due to the high level of ODN1 that was delivered to the cells.

L7 cells = experiment: Transfection of L7 cells with ODN1 (Example 11); type: cell-based, murine; conditions: for % L7 transfected: 20% FBS, 18 h, 250 pmole ODN1
Text: as §1

CV-1 cells [4] = experiment: Transfection of CV-1 cells with 30/ODN1 (Example 8); type: cell-based, African green monkey; conditions: for % CV-1 transfected: 18 h, 500 pmole ODN1
Text: as §1, §2

CV-1 cells [5] = experiment: Transfection of CV-1 cells with ODN1 and toxicity (Example 6); conditions: 18 h, 10% FBS; for cells transfected CV-1: 15 μg/mL lipid, 1:1 DOPE, 250 pmole ODN1
Experimental: as §4, §5, §6

SK-OV-3 cells = experiment: Transfection of SK-OV-3 cells with ODN1 in 40% or 80% FBS (Example 7); type: cell-based, human; conditions: for % SK-OV-3 transfected: 18 h, 500 pmole ODN1, 1:1 DOPE
Text: as §1
80% serum approximates the serum protein and ion conditions that exist in vivo in mammalian circulation. 30 is thus suitable for transfecting cells under physiological conditions.

ECl cells = experiment: Transfection of ECl cells with ODN1 (Example 10); type: cell-based, human; conditions: for % ECl transfected: DMEM
Text: as §1

CV-1 cells [6] = experiment: Transfection of CV-1 cells with ODN1 and toxicity (Example 22); type: cell-based, African green monkey; conditions: 2:1 DOPE, 6 h, 10% FBS, 250 pmole ODN1
Experimental: (§3) Lipids 35, 52, 54 and 55 were each prepared using a 2:1 lipid:DOPE molar ratio as follows. Two molar equivalents of each lipid in CHCl3 and one equivalent of DOPE in CHCl3 was dried under reduced pressure by rotovap at room temperature. Deionized water was then added to give 1 mg/mL of total lipid. 10 mL of water containing 10 mg of lipid was vortexed for 5 minutes in a 100 mL round bottom flask. 2 mL aliquots were then used to prepare lipid suspensions for complexing with ODN1. Each preparation was obtained by 6 cycles of freezing on dry ice and thawing in a 37° C. water bath.

cdc-2 kinase = experiment: cdc-2 antisense oligonucleotide analog transfection, Western blot (Example 22); type: cell-based, African green monkey; conditions: 30 nM cdc-2 antisense oligonucleotide analog, 2.5 and 5.0 μg lipid
Text: The oligonucleotide contained 5-(1-propynyl)cytosine in place of cytosine and 5-(1-propynyl)uracil in place of uracil. A control oligonucleotide analog having a mismatched base sequence was also used to check for any non-specific effect on cdc-2 kinase levels in the transfected cells caused by the oligonucleotide analog. A control containing only lipid was also used as a control. […] Protein levels were examined by Western blot analysis.

[7] = Transfection of CV-1 cells with ODN1 and toxicity (Example 22); type: cell-based, African green monkey; conditions: monkey, cv-1 cells; 10.0 μg lipid
Experimental: as §3

[8] = fluorescence observation, in words

## CCCCCCCCCCCCCCCCCCN(CCCCCCCCCCCCCCCCCC)C(=O)CNC(=O)[C@@H](N)CCCN.Cl.Cl [Compound 30]
A10 cells
  cells transfected A10: 95
  toxicity to A10 cells: little or no toxicity
  transfection of A10 in the presence of serum: efficiently transfected
HUVEC cells; 5 μg/mL lipid
  % HUVEC transfected: 1%
HUVEC cells; 10 μg/mL lipid
  % HUVEC transfected: 5%
HUVEC cells; in words
  transfection of HUVEC: modest efficiency
NHEK cells; 1 μg/mL lipid, second series
  % NHEK transfected: 25%
NHEK cells; 2.5 μg/mL lipid, second series
  % NHEK transfected: 50%
NHEK cells; 5 μg/mL lipid, first series
  % NHEK transfected: 80-90%
NHEK cells; 5 μg/mL lipid, second series
  % NHEK transfected: 60-70%
NHEK cells; 10 μg/mL lipid, first series
  % NHEK transfected: 70%
NHEK cells; 10 μg/mL lipid, second series
  % NHEK transfected: 60-70%
NHEK cells; 20 μg/mL lipid, first series
  % NHEK transfected: 60%
NHEK cells; [8]
  level of ODN1 delivered into NHEK cells: high levels
NHEK cells; in words
  toxicity NHEK: little to moderate toxicity
  transfection of NHEK: efficiently transfected
Cells [1]; 50 nm filter
  transfection efficiency of 50 nm filtered preparations relative to larger particles: 40-50%
Cells [1]; in words
  transfection efficiency of 200 nm or 100 nm filtered preparations: the most efficient (and equally efficient)
Cells [2]
  amount of polyanion delivered into cells relative to commercially available lipids: 2- to 100 fold
CV-1 cells [3]
  toxicity to CV-1 cells: little or no toxicity
HL60 cells; 20 μg/mL, 0% serum, 5 h
  % HL60 transfected: 77%
HL60 cells; 20 μg/mL, 10% serum, 5 h
  % HL60 transfected: 76%
HL60 cells; 20 μg/mL, 10% serum, 5 h, footnote
  toxicity HL60: significant toxicity noted
HL60 cells; in words
  transfection of HL60: efficiently transfected
L7 cells; 2.5 μg/mL lipid
  % L7 transfected: 10%
L7 cells; 5 μg/mL lipid
  % L7 transfected: 30%
L7 cells; 10 μg/mL lipid
  % L7 transfected: 60%
L7 cells; in words
  toxicity L7: little or no toxicity
  transfection of L7: efficiently transfected
CV-1 cells [4]; 2.5 μg/mL, 10% serum
  % CV-1 transfected: 90%
CV-1 cells [4]; 5 μg/mL, 10% serum
  % CV-1 transfected: > 95%
CV-1 cells [4]; 10 μg/mL, 10% serum
  % CV-1 transfected: > 95%
CV-1 cells [4]; 15 μg/mL, 10% serum
  % CV-1 transfected: > 95%
CV-1 cells [4]; 20 μg/mL, 50% serum
  % CV-1 transfected: 95%
CV-1 cells [4]; 20 μg/mL, 80% serum
  % CV-1 transfected: 90%
CV-1 cells [4]; in words
  transfection of CV-1 at reduced levels of lipid: efficiently transfected
CV-1 cells [5]
  cells transfected CV-1: 85
CV-1 cells [5]; in words
  transfection of CV-1 in the presence of serum: efficiently transfected
SK-OV-3 cells; 40% serum
  % SK-OV-3 transfected: 76%
SK-OV-3 cells; 80% serum
  % SK-OV-3 transfected: 72%
SK-OV-3 cells; in words
  transfection of SK-OV-3 in the presence of serum: efficiently transfected
ECl cells; 2.5 μg/mL lipid, 5 hour transfection
  % ECl transfected: 10%
ECl cells; 5 μg/mL lipid, 5 hour transfection
  % ECl transfected: 25-30%
ECl cells; 5 μg/mL lipid, 6 hour transfection
  % ECl transfected: 30%
ECl cells; 10 μg/mL lipid, 5 hour transfection
  % ECl transfected: 51%
ECl cells; 10 μg/mL lipid, 6 hour transfection
  % ECl transfected: 43%
ECl cells; 15 μg/mL lipid, 5 hour transfection
  % ECl transfected: 70%
ECl cells; 20 μg/mL lipid, 6 hour transfection
  % ECl transfected: 20%
ECl cells; [8]
  level of ODN1 delivered into ECl cells: high levels
ECl cells; in words
  toxicity ECl: little to moderate toxicity
  transfection of ECl: efficiently transfected

## CCCCCCCCCCCCCCCCCCN(CCCCCCCCCCCCCCCCCC)C(=O)CCC(=O)NCCCN1CCN(CCCN)CC1 [Compound 38]
A10 cells
  cells transfected A10: 85
  toxicity to A10 cells: little or no toxicity
  transfection of A10 in the presence of serum: efficiently transfected
CV-1 cells [5]
  cells transfected CV-1: 70
CV-1 cells [5]; in words
  toxicity to CV-1 cells: little or no toxicity
  transfection of CV-1 in the presence of serum: efficiently transfected
SK-OV-3 cells; 40% serum
  % SK-OV-3 transfected: < 10%
SK-OV-3 cells; 80% serum
  % SK-OV-3 transfected: 0%

## CCCCCCCCCCCCNC(=O)CCC(=O)NCCCN1CCN(CCCN)CC1 [Compound 44]
A10 cells
  cells transfected A10: < 10
CV-1 cells [5]
  cells transfected CV-1: < 5

## CCCCCCCCCCCCCCN(CCCCCCCCCCCCCC)C(=O)CNC(=O)C(N)CCCNC(=N)NC(C)=O.Cl.Cl (centres unmarked) [Compound 52]
CV-1 cells [6]; 1 μg lipid
  % cells transfected: 30-40%
CV-1 cells [6]; 2.5 μg lipid
  % cells transfected: 60%
CV-1 cells [6]; 5.0 μg lipid
  % cells transfected: 60%
CV-1 cells [6]; 10.0 μg lipid
  % cells transfected: 60%

## CCCCCCCCCCCCCCN(CCCCCCCCCCCCCC)C(=O)CNC(=O)C(N)CCCNC(=N)NC(=O)OC(C)C.Cl.Cl (centres unmarked) [Compound 53]
CV-1 cells [6]; 1 μg lipid
  % cells transfected: 30%
CV-1 cells [6]; 2.5 μg lipid
  % cells transfected: 70%
CV-1 cells [6]; 5.0 μg lipid
  % cells transfected: 100%
CV-1 cells [6]; 10.0 μg lipid
  % cells transfected: 60%
cdc-2 kinase
  cdc-2 protein levels: efficiently reduced cdc-2 protein levels

## CCCCCCCCCCCCCCN(CCCCCCCCCCCCCC)C(=O)CNC(=O)C(N)CCCNC(=N)NC(=O)C(C)(C)C.Cl.Cl (centres unmarked) [Compound 54]
CV-1 cells [6]; 1 μg lipid
  % cells transfected: 10-20%
CV-1 cells [6]; 2.5 μg lipid
  % cells transfected: 30-40%
CV-1 cells [6]; 5.0 μg lipid
  % cells transfected: 70-80%
CV-1 cells [6]; 10.0 μg lipid
  % cells transfected: 40%

## CCCCCCCCCCCCCCN(CCCCCCCCCCCCCC)C(=O)CNC(=O)[C@@H](N)CCCNC(=N)N [Compound 55]
[7]
  cytotoxicity at 6 h: > 40%
CV-1 cells [6]; 1 μg lipid
  % cells transfected: 40%
CV-1 cells [6]; 2.5 μg lipid
  % cells transfected: 75%
CV-1 cells [6]; 5.0 μg lipid
  % cells transfected: 100%
CV-1 cells [6]; 10.0 μg lipid
  % cells transfected: 40%
cdc-2 kinase
  cdc-2 protein levels: efficiently reduced cdc-2 protein levels
